In patent US20260234115A1, “LIPID COMPOUNDS, COMPOSITIONS, AND USES THEREOF” (Liberate Bio, Inc., priority 2023, published 2026):
Marks after values point to notes of the source that are not given here.

Test system: mouse organs
Assay: In vivo activity screening in mice: organ mean total flux (p/s) of luciferase activity after injection of F2 LNP pools (Table 6, FIG. 7A-7C)
Conditions: luciferase mRNA
Protocol: Small rodent biodistribution studies were performed in mice (e.g., C57BL/6J, Balb-c, CD-1, etc.). For evaluating LNP biodistribution and tissue activity upon systemic administration, C57BL/6J mice received dose administration by single intravenous injection via tail vein with LNP formulations (individual or pooled) in PBS, at different dose (0.25-3 mg/kg) levels of firefly luciferase mRNA. At predetermined time points (4-6 hours post-injection), the animals were anesthetized via isoflurane and subjected to in-life imaging sessions for bioluminescence using an In Vivo Imaging System (IVIS). All animals were dosed with D-Luciferin at 15 mg/mL via subcutaneous (SC) injection at 0.2 mL/animal. Animals had their abdomen hair shaved using an animal trimmer. They were then placed so their shaved belly faced up toward the IVIS camera. Whole body imaging sessions were performed 10-15 minutes following D-Luciferin administration.
For in detail organ distribution and activity of LNP formulations, ex vivo imaging sessions were also performed. All animals received SC D-Luciferin and were then euthanized by isoflurane overdose, followed by cardiac perfusion with saline. Following perfusion, the organs were collected and subjected to IVIS imaging for luminescence within 10-15 minutes of D-Luciferin injection.
All IVIS images were processed with a computer software to identify the regions of interests for individual organs to detect the total flux (p/s) values as luminescence quantification. Then the total flux values were graphed to evaluate the in vivo activity in each collected organ.
Small rodent biodistribution studies were performed in mice according to the General Study Protocols in Example 3(a). LNPs incorporating lipid compounds were prepared in Formulation F2, with MC3 as lipid compound (Cayman Chemical) prepared using Formulation F2 for comparison. LNP pools (with firefly luciferase mRNA encapsulated) were injected into mice at varying doses, and organ mean total flux (p/s) results (measuring luciferase activity) were then collected according to Example 3(a).
LNPs comprising MC3 used as a control and for cross-mouse comparison. Dose is in mg/kg; LC is Lipid Compound according to Table 1.
Additional screening results for Compounds 7, 13, 14, 26, 33, 38, 39, 40, 48, 60, 61, 89, 103, and 109 in spleen, femur, and muscle are shown in FIG. 7A, FIG. 7B, and FIG. 7C, with MC3 as a used as a control for comparison.

Row | Compound | Organ Mean Total Flux Femur (Mouse 6, dose 0.5 mg/kg) | Organ Mean Total Flux Heart (Mouse 6, dose 0.5 mg/kg) | Organ Mean Total Flux Kidney (Mouse 6, dose 0.5 mg/kg) | Organ Mean Total Flux Liver (Mouse 6, dose 0.5 mg/kg) | Organ Mean Total Flux Lung (Mouse 6, dose 0.5 mg/kg) | Organ Mean Total Flux Muscle (Mouse 6, dose 0.5 mg/kg) | Organ Mean Total Flux Pancreas (Mouse 6, dose 0.5 mg/kg) | Organ Mean Total Flux Spleen (Mouse 6, dose 0.5 mg/kg) | Organ Mean Total Flux Femur (Mouse 5, dose 0.5 mg/kg) | Organ Mean Total Flux Heart (Mouse 5, dose 0.5 mg/kg) | Organ Mean Total Flux Kidney (Mouse 5, dose 0.5 mg/kg) | Organ Mean Total Flux Liver (Mouse 5, dose 0.5 mg/kg) | Organ Mean Total Flux Lung (Mouse 5, dose 0.5 mg/kg) | Organ Mean Total Flux Muscle (Mouse 5, dose 0.5 mg/kg) | Organ Mean Total Flux Pancreas (Mouse 5, dose 0.5 mg/kg) | Organ Mean Total Flux Spleen (Mouse 5, dose 0.5 mg/kg)
1 | CCCCC/C=C\CCOC(=O)CCCCCC(=O)OCC(COC(=O)CCCCCC(=O)OCC/C=C\CCCCC)(COC(=O)CCCCCC(=O)OCC/C=C\CCCCC)COC(=O)CCC(CCCCCCCC)OC(=O)NCCN1CCCC1 (stereo not shown) [Compound 28, O7-[2,2-bis[[7-[(Z)-non-3-enoxy]-7-oxo-heptanoyl]oxymethyl]-3-[4-(2-pyrrolidin-1-ylethylcarbamoyloxy)dodecanoyloxy]propyl]O1-[(Z)-non-3-enyl]heptanedioate] | 3.5 p/s (×10^6) | 0.5 p/s (×10^6) | 0.9 p/s (×10^6) | 278.3 p/s (×10^6) | 10.4 p/s (×10^6) | 11.6 p/s (×10^6) | 0.8 p/s (×10^6) | 3.5 p/s (×10^6) | – | – | – | – | – | – | – | –
2 | CCCCC/C=C\CCOC(=O)CCCCCCC(=O)OCC(COC(=O)CCCCCCC(=O)OCC/C=C\CCCCC)(COC(=O)CCCCCCC(=O)OCC/C=C\CCCCC)COC(=O)CCC(CCCCCC)OC(=O)NCCN(C)CC (stereo not shown) [Compound 29, O8-[2-[4-[2-[ethyl(methyl)amino]ethylcarbamoyloxy]decanoyloxymethyl]-3-[8-[(Z)-non-3-enoxy]-8-oxo-octanoyl]oxy-2-[[8-[(Z)-non-3-enoxy]-8-oxooctanoyl]oxymethyl]propyl]O1-[(Z)-non-3-enyl]octanedioate] | 4.2 p/s (×10^6) | 3.9 p/s (×10^6) | 3.2 p/s (×10^6) | 1913 p/s (×10^6) | 11.4 p/s (×10^6) | 10.3 p/s (×10^6) | 1.4 p/s (×10^6) | 3.3 p/s (×10^6) | – | – | – | – | – | – | – | –
3 | CCCCC/C=C\CCOC(=O)CCCCCCC(=O)OCC(COC(=O)CCCCCCC(=O)OCC/C=C\CCCCC)(COC(=O)CCCCCCC(=O)OCC/C=C\CCCCC)COC(=O)CCC(CCCCCC)OC(=O)OCCCN1CCCC1 (stereo not shown) [Compound 31, O8-[2,2-bis[[8-[(Z)-non-3-enoxy]-8-oxo-octanoyl]oxymethyl]-3-[4-(3-pyrrolidin-1-ylpropoxycarbonyloxy)decanoyloxy]propyl]O1-[(Z)-non-3-enyl]octanedioate] | – | – | – | – | – | – | – | – | 0.9 p/s (×10^6) | 0.1 p/s (×10^6) | 0.1 p/s (×10^6) | 26.8 p/s (×10^6) | 1.2 p/s (×10^6) | 1.0 p/s (×10^6) | 0.2 p/s (×10^6) | 2.0 p/s (×10^6)
4 | CCCCCCCCOC(=O)CCCCCCC(=O)OCC(COC(=O)CCCCCCC(=O)OCCCCCCCC)(COC(=O)CCCCCCC(=O)OCCCCCCCC)COC(=O)CCC(CCCCCC)OC(=O)NCCN1CCCC1 (stereo not shown) [Compound 33, O8-[2,2-bis[(8-octoxy-8-oxo-octanoyl)oxymethyl]-3-[4-(2-pyrrolidin-1-ylethylcarbamoyloxy)decanoyloxy]propyl]O1-octyl octanedioate] | 21.3 p/s (×10^6) | 2.8 p/s (×10^6) | 3.0 p/s (×10^6) | 1024 p/s (×10^6) | 16.9 p/s (×10^6) | 53.7 p/s (×10^6) | 9.2 p/s (×10^6) | 30.1 p/s (×10^6) | – | – | – | – | – | – | – | –
5 | CCCCCCCCOC(=O)CCCCCC(=O)OCC(COC(=O)CCCCCC(=O)OCCCCCCCC)(COC(=O)CCCCCC(=O)OCCCCCCCC)COC(=O)CCC(CCCCCC)OC(=O)NCCN1CCCC1 (stereo not shown) [Compound 34, O7-[2,2-bis[(7-octoxy-7-oxo-heptanoyl)oxymethyl]-3-[4-(2-pyrrolidin-1-ylethylcarbamoyloxy)decanoyloxy]propyl]O1-octyl heptanedioate] | 10.5 p/s (×10^6) | 3.3 p/s (×10^6) | 6.7 p/s (×10^6) | 1610 p/s (×10^6) | 20.2 p/s (×10^6) | 28.3 p/s (×10^6) | 12.8 p/s (×10^6) | 39.4 p/s (×10^6) | – | – | – | – | – | – | – | –
